Tests used:
Format in all cases: in vivo
cleaved PKCδ = assay: Striatal cleaved PKCδ expression after MA (western blot); details: MA 8 mg/kg i.p. x4, GPx-1 (+/+) and (−/−) mice; for effect on MA-induced striatal cleaved PKCδ expression: p.o., AME 25 or 50, EBS 10 or 20, rottlerin 10 or 20 mg/kg
Experimental: (§1) The mice received four times of MA (8 mg/kg, ip) or saline as a 2 hr-time interval. Chemicals (AME, EBS, and PKC inhibitors) were administrated for 5 consecutive days (twice daily), and were given 2 times at 4 hr and 30 min before the first MA injection as shown in the experimental schedule. Animals were sacrificed at 4 hrs and 3 days after the final MA administration.
Tissues were homogenized in lysis buffer, containing 200 mM Tris HCl (pH 6.8), 1% SDS, 5 mM EGTA (ethylene glycol tetraacetic acid), 5 mM EDTA (ethylenediaminetetraacetic acid), 10% glycerol, 1× phosphatase inhibitor cocktail I, 1× protease inhibitor cocktail. Lysate was centrifuged at 12,000×g for 30 min and supernatant fraction was used for Western blot analysis. […] And then, membranes were incubated with HRP-conjugated secondary anti-rabbit IgG (1:1000, GE healthcare, Piscataway, N.J., USA), anti-mouse IgG (1:1000, Sigma) or anti-goat IgG (1:1000, Sigma) for 2 h. Subsequent visualization was performed using enhanced chemiluminescence system (ECL Plus®, GE healthcare).

protein carbonyl = assay: Striatal protein oxidation (protein carbonyl) after MA; details: biochemical assay and slot blot; striatum, 3 days after final MA; p.o.; AME 50, EBS 20, rottlerin 20 mg/kg; GPx-1 (+/+) and (−/−) mice
Experimental: as §1
The amount of oxidized proteins was measured using the Oxyblot kit (Chemicon International, CA) according to the instruction provided by manufacturer. Briefly, the protein carbonyl content was measured by first forming labeled protein hydrazone derivatives using 2,4-dinitrophenylhydrazide (DNP). The DNP-derivatized protein samples were transferred onto PVDF membrane by slot blot apparatus (GE Healthcare). Blots were then incubated with primary antibody specific to the DNP moiety, followed by incubation with a HRP-conjugated secondary antibody. Subsequent visualization was performed using enhanced chemiluminescence system (ECL Plus®, GE healthcare) (Gemma et al., 2004).
The extent of protein carbonyl oxidation in the striatum was assessed by measuring the content of protein carbonyl groups, which was determined spectrophotometrically with the 2,4-dinitrophenyl-hydrazine (DNPH)-labeling procedure (Kim et al., 1997b, 2000b, 2002) as described by Oliver et al. (1987). The results were expressed as nmol of DNPH incorporated/mg protein based on the extinction coefficient for aliphatic hydrazones of 21 mM^−1 cm^−1. Protein was measured using the BCA protein assay reagent (Pierce, Rockford, Ill., USA).

[1] = tested on: tumor necrosis factor (TNF)-α; assay: TNF-α expression after MA (western blot); details: p.o.; AME 50, EBS 20, rottlerin 20 mg/kg; MA 8 mg/kg i.p. x4; GPx-1 (+/+) and (−/−) mice
Experimental: as §1
(§2) The western blot assays was performed as described previously (Kim et al., 2003). Tissues were homogenized in lysis buffer, containing 200 mM Tris HCl (pH 6.8), 1% SDS, 5 mM EGTA (ethylene glycol tetraacetic acid), 5 mM EDTA (ethylenediaminetetraacetic acid), 10% glycerol, 1× phosphatase inhibitor cocktail I, 1× protease inhibitor cocktail. Lysate was centrifuged at 12,000×g for 30 min and supernatant fraction was used for Western blot analysis. Proteins (20-50 ug/lane) were separated by 6%, 8%, 10% or 15% sodium dodecyl sulfate-polyacrylamide gel electrophoresis and transferred onto the PVDF membranes. Following transfer, the membranes were preincubated with 5% non-fat milk and incubated overnight at 4° C. with primary antibody against β-actin (1:50000, Sigma, St. Louis, Mo., USA), TH (1:5000, Chemicon), TH phosphor-Ser 19 (1:1000, Chemicon,), TH phosphor-Ser 31 (1:500, Chemicon), TH phosphor-Ser 40 (1:500, Chemicon), F4/80 (1:500, Serotec), GPx1 (1:2500, AbFrontier), PKC (1:5000, Santa Cruz biotechnology, Santa Cruz, Calif., USA), p53 (1:5000, Cell signaling, Beverly, Mass., USA), MDM2 (1:1000, BD Pharmingen, San Jose, Calif., USA), MDM2 phospho-Ser 166 (1:1000, cell signaling), BDNF (1:500, Chemicon), GDNF (1:250, Santa Cruz), COX-2 (1:2000, Cayman, Ann Arbor, MC, USA), IL-6 (1:2000, Abcam, Cambridge, Mass., USA), TNF-a (1:1000, R&D Systems, Mckinley place NE, NM, USA), IFN-γ (1:500, Chemicon) or Iba-1 (1:500, Wako, Osaka, Japan). And then, membranes were incubated with HRP-conjugated secondary anti-rabbit IgG (1:1000, GE healthcare, Piscataway, N.J., USA), anti-mouse IgG (1:1000, Sigma) or anti-goat IgG (1:1000, Sigma) for 2 h. […]

[2] = tested on: GPx-1 (+/+)- and GPx-1 (−/−)-mice; assay: Locomotor activity after MA; details: MA 8 mg/kg i.p. x4, GPx-1 (+/+) and (−/−) mice
Experimental: as §1
Locomotor activity was measured for 30 min 3 days after the last MA administration using an automated video-tracking system (Noldus Information Technology, Wagenin, The Netherlands). Four test boxes (40×40×30 cm high) were operated simultaneously by an IBM computer. Mice were studied individually during locomotion in each test box, where they were adapted for 5 min before starting the experiment. […] The distance traveled in cm by the animals in horizontal locomotor activity was analyzed. Data were collected and analyzed between 09:00 and 17:00 h (Kim et al., 2001).

[3] = tested on: glial cell line-derived neurotrophic factor (GDNF); assay: Striatal GDNF expression after MA (western blot); details: p.o.; AME 50, EBS 20, rottlerin 20 mg/kg; MA 8 mg/kg i.p. x4; GPx-1 (+/+) and (−/−) mice
Experimental: as §1, §2

interleukin (IL)-6 = assay: IL-6 expression after MA (western blot); details: p.o.; AME 50, EBS 20, rottlerin 20 mg/kg; MA 8 mg/kg i.p. x4; GPx-1 (+/+) and (−/−) mice
Experimental: as §1, §2

[4] = tested on: tyrosine hydroxylase (TH); assay: Striatal tyrosine hydroxylase (TH) activity after MA; details: p.o.; AME 50, EBS 20, rottlerin 20 mg/kg; MA 8 mg/kg i.p. x4; GPx-1 (+/+) and (−/−) mice
Experimental: as §1
TH activity was measured according to the method of Lucock et al. with some modification (Duan et al., 2005). Briefly, striatum was lysed in 400 μl TH working solution (1-tyrosine: 300 μmol/L; FeSO4: 1 mmol/L; NaAC: 200 mmol/L; NSD-1050:500 won; DTT: 1 mmol/L; MES: 40 mmol/L, pH 5.2-5.6) with freezing-thawing repeatedly for three times. The lysate was reacted for 3 h at 25° C. The reaction was stopped by 0.4 mol/L perchloric acid, and then reactant was centrifuged at 14,000×g for 10 min. Supernatants were collected to assay the amounts of 1-dopa by HPLC-ECD. The activity of TH was expressed as that amount of 1-dopa per minute and per gram of wet tissue.

[5] = p.o., AME 25 or 50, EBS 10 or 20, rottlerin 10 or 20 mg/kg

Structure (SMILES)	effect on MA-induced striatal cleaved PKCδ expression (cleaved PKCδ)	effect on MA-induced increase in protein oxidation (protein carbonyl)	effect on MA-induced increase in TNF-α expression [1]	effect on MA-induced impairment in locomotor activity [2, 5]	effect on MA-induced reduction in GDNF expression [3]	effect on MA-induced increase in IL-6 expression (interleukin (IL)-6)	effect on MA-induced decrease in TH activity [4]	effect on MA-induced increase in striatal cleaved PKCδ expression (cleaved PKCδ; intra-striatal)	effect on MA-induced impairment in locomotor activity ([2]; PKC inhibitors intra-striatal (chelerythrine 0.2 ug/head, rottlerin 3.0 ug/head significant))
O=c1c2ccccc2[se]n1-c1ccccc1 [EBS, 2-phenyl-1,2-benzisoselenazol-3(2H)-one]	significantly reduced MA-induced the PKCδ- and cleaved PKCδ-expressions in a dose-related manner	significantly attenuated	significantly and consistently attenuating effects	inhibited these effects in a dose-dependent manner	significantly attenuated these reductions	significantly and consistently attenuating effects	decrease in TH activity was attenuated	–	–
CC(=O)Oc1ccccc1C(=O)Oc1c(C)occc1=O [AME, 3-(2-methyl-4-pyronyl)-2-acetyloxybenzoate]	significantly reduced MA-induced the PKCδ- and cleaved PKCδ-expressions in a dose-related manner	significantly attenuated	significantly and consistently attenuating effects	inhibited these effects in a dose-dependent manner	significantly attenuated these reductions	significantly and consistently attenuating effects	decrease in TH activity was attenuated	–	–
CC(=O)c1c(O)c(C)c(O)c(Cc2c(O)c3c(c(C(=O)/C=C/c4ccccc4)c2O)OC(C)(C)C=C3)c1O [rottlerin]	significantly reduced MA-induced the PKCδ- and cleaved PKCδ-expressions in a dose-related manner	significantly attenuated	significantly and consistently attenuating effects	inhibited these effects in a dose-dependent manner	significantly attenuated these reductions	significantly and consistently attenuating effects	decrease in TH activity was attenuated	attenuated the MA-induced increases in PKCδ expressions in a dose-dependent manner	attenuated the MA-behavioral impairments in a dose-dependent manner

From US20120328696A1, “ANTI-PARKINSONIAN COMPOUND ACETYLSALICYLIC ACID MALTOL ESTER” (Hutecs Korea Pharmaceutical Co., Ltd., priority 2008, published 2012)
